Measured values published in paper PMC11364775, “Ion occupancy of the selectivity filter controls opening of a cytoplasmic gate in the K2P channel TALK-2” (Nature Communications, 2024).

Biological target: T1, WT TREK-2 channels (Homo sapiens, UniProt P57789)
T1 construct: expressed in transfected cells; host or cells: Xenopus laevis oocytes (cRNA injection), excised inside-out patches
T1 sequence (P57789 1-538): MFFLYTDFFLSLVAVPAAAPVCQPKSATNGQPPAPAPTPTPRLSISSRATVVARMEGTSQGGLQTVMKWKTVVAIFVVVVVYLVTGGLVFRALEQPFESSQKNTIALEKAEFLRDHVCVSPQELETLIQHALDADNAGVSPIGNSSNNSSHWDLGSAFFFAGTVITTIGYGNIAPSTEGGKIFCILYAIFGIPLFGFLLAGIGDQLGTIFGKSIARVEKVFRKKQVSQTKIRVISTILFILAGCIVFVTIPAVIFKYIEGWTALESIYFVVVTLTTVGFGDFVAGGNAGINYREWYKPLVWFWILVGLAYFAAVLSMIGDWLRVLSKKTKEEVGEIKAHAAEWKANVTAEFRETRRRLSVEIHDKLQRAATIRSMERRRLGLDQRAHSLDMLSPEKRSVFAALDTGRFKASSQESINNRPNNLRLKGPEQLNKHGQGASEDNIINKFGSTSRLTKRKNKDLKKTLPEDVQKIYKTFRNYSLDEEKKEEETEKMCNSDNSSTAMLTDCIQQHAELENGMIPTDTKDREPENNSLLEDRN
Assay: Conductance-voltage (G-V) curves from tail currents, V1/2 (intracellular Rb+)
Type: cell-based
Conditions: for Normalized current: TREK-2 WT + 0.1 mM TPenA
From the text: The voltage-dependent activation mechanism of the SF gate in K2P channels allows to estimate the electrical work (ΔG = zFΔV1/2) required for pore opening by fitting the G–V curve to a Boltzmann equation. […] The open state represents the situation of both gates being simultaneously open but voltage can only exert force on the SF gate that functions as voltage sensor. […] We further tested whether mutations that open the lower gate (L262A and L264A) would affect the extracellular pH sensitivity. […] We further explored this concept of allosteric coupling using the mutations identified in the functional alanine screen of TM2 and TM4. […]
Conductance-voltage (G–V) relationships were determined from tail currents recorded at a holding potential (VH) of −80 mV after 300 ms depolarizing steps as indicated in the respective figure legend. Data were analyzed with a single Boltzmann fit following Eq. 6:6 GV=Imax/1+e^V−V1/2/slope+Ibase where V1/2 represents the voltage of half-maximal activation, s is the slope factor and Imax and Ibase represent the upper and lower asymptotes. Under appropriate experimental conditions, you can use slope to calculate the valence (charge) of the ion moving across the channel. Slope equals R * T/ z * F where R is the universal gas constant, T is temperature in K, F is the Faraday constant, and z is the valence.

Structure (SMILES): CCCCC[N+](CCCCC)(CCCCC)CCCCC [TPenA, Tetra-pentyl-ammonium chloride]
- effect of TPenA on the G-V curve (TREK-2, intracellular Rb+): not affected
- Normalized current (Voltage 0.000): 0.142
- Normalized current (Voltage 0.005): 0.177
- Normalized current (Voltage 0.010): 0.238
- Normalized current (Voltage 0.015): 0.307
- Normalized current (Voltage 0.020): 0.404
- Normalized current (Voltage 0.025): 0.485
- Normalized current (Voltage 0.030): 0.577
- Normalized current (Voltage 0.035): 0.667
- Normalized current (Voltage 0.040): 0.719
- Normalized current (Voltage 0.045): 0.784
- Normalized current (Voltage 0.050): 0.838
- Normalized current (Voltage 0.055): 0.851
- Normalized current (Voltage 0.060): 0.883
- Normalized current (Voltage 0.065): 0.906
- Normalized current (Voltage 0.070): 0.921
- Normalized current (Voltage 0.075): 0.924
- Normalized current (Voltage 0.080): 0.944
- Normalized current (Voltage 0.085): 0.936
- Normalized current (Voltage 0.090): 0.949
- Normalized current (Voltage 0.095): 0.963
- Normalized current (Voltage 0.100): 0.966
- Normalized current (Voltage 0.105): 0.964
- Normalized current (Voltage 0.110): 0.962
- Normalized current (Voltage 0.115): 0.961
- Normalized current (Voltage 0.120): 0.949
- Normalized current (Voltage 0.125): 0.915
- Normalized current (Voltage 0.130): 0.965
- Normalized current (Voltage 0.135): 0.962
- Normalized current (Voltage 0.140): 0.941
- Normalized current (Voltage 0.145): 0.970
- Normalized current (Voltage 0.150): 0.939
- Normalized current (Voltage -0.005): 0.115
- Normalized current (Voltage -0.010): 0.097
- Normalized current (Voltage -0.015): 0.086
- Normalized current (Voltage -0.020): 0.073
- Normalized current (Voltage -0.025): 0.072
- Normalized current (Voltage -0.030): 0.066
- Normalized current (Voltage -0.035): 0.062
- Normalized current (Voltage -0.040): 0.062
- Normalized current (Voltage -0.045): 0.059
- Normalized current (Voltage -0.050): 0.058
- Normalized current (Voltage -0.055): 0.055
- Normalized current (Voltage -0.060): 0.055
- Normalized current (Voltage -0.065): 0.050
- Normalized current (Voltage -0.070): 0.049
- Normalized current (Voltage -0.075): 0.050
- Normalized current (Voltage -0.080): 0.048
- Normalized current (Voltage -0.085): 0.046
- Normalized current (Voltage -0.090): 0.044
- Normalized current (Voltage -0.095): 0.044
